Laboratory results: ChEMBL document CHEMBL1201862, “PubChem BioAssay data set” (2004)
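Five concentrations, 48 hours, 96-well plates. Here, GI50 denotes the concentration required for 50% inhibition of growth.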 Active and inactive are the calls of the source. No stated cut-off is given here; in the data, active = GI50 up to about 1.1 µM and inactive = higher.

Columns and labels:
Test in all cases: DTP human tumour cell line panel, 48 h
RPMI-8226 = test system: RPMI-8226
SF-268 = test system: SF-268
ACHN = test system: ACHN
DLD-1 = test system: DLD-1
SF-295 = test system: SF-295
NCI-H23 = test system: NCI-H23
NCI-H460 = test system: NCI-H460
M14 = test system: M14
EKVX = test system: EKVX
CAKI-1 = test system: CAKI-1
Malme-3M = test system: Malme-3M
SF-539 = test system: SF-539
OVCAR-8 = test system: OVCAR-8
HOP-92 = test system: HOP-92
OVCAR-5 = test system: OVCAR-5
CCRF-CEM = test system: CCRF-CEM
HCT-15 = test system: HCT-15
HL-60 = test system: HL-60

## CN(CCc1ccccn1)c1nc(=[N+](C)C)ss1
RPMI-8226
  GI50: > 100 µM (inactive)
SF-268
  GI50: > 100 µM (inactive)
ACHN
  GI50: > 100 µM (inactive)
DLD-1
  GI50: > 100 µM (inactive)
SF-295
  GI50: 56.1 µM (inactive)
NCI-H23
  GI50: > 100 µM (inactive)
NCI-H460
  GI50: 46.3 µM (inactive)
M14
  GI50: > 100 µM (inactive)
EKVX
  GI50: > 100 µM (inactive)
CAKI-1
  GI50: > 100 µM (inactive)
Malme-3M
  GI50: > 100 µM (inactive)
SF-539
  GI50: > 100 µM (inactive)
OVCAR-8
  GI50: > 100 µM (inactive)
HOP-92
  GI50: > 100 µM (inactive)
OVCAR-5
  GI50: > 100 µM (inactive)
CCRF-CEM
  GI50: 81.3 µM (inactive)
HCT-15
  GI50: > 100 µM
HL-60
  GI50: > 100 µM (inactive)

## COc1cc2ccnc([C@@H](OC(=O)c3ccccc3)c3ccc(OC)c(OC)c3OC)c2cc1OC
RPMI-8226
  GI50: 54.3 µM (inactive)
SF-268
  GI50: 52 µM (inactive)
ACHN
  GI50: 32.7 µM (inactive)
DLD-1
  GI50: 27.9 µM (inactive)
SF-295
  GI50: 21.2 µM (inactive)
NCI-H23
  GI50: 40.6 µM (inactive)
NCI-H460
  GI50: 33.6 µM (inactive)
M14
  GI50: 78.3 µM (inactive)
EKVX
  GI50: > 100 µM (inactive)
CAKI-1
  GI50: 30.3 µM (inactive)
Malme-3M
  GI50: 36.2 µM (inactive)
SF-539
  GI50: 47.5 µM (inactive)
OVCAR-8
  GI50: 51.9 µM (inactive)
HOP-92
  GI50: 23.3 µM (inactive)
OVCAR-5
  GI50: 23.8 µM (inactive)
CCRF-CEM
  GI50: 53.2 µM (inactive)
HCT-15
  GI50: 42.4 µM
HL-60
  GI50: 41.8 µM (inactive)

## CC/N=C(/C#N)NCC
RPMI-8226
  GI50: 30.4 µM (inactive)
SF-268
  GI50: > 100 µM (inactive)
ACHN
  GI50: > 100 µM (inactive)
DLD-1
  GI50: > 100 µM (inactive)
SF-295
  GI50: > 100 µM (inactive)
NCI-H23
  GI50: > 100 µM (inactive)
NCI-H460
  GI50: > 100 µM (inactive)
M14
  GI50: > 100 µM (inactive)
EKVX
  GI50: > 100 µM (inactive)
CAKI-1
  GI50: > 100 µM (inactive)
Malme-3M
  GI50: > 100 µM (inactive)
SF-539
  GI50: > 100 µM (inactive)
OVCAR-8
  GI50: > 100 µM (inactive)
HOP-92
  GI50: > 100 µM (inactive)
OVCAR-5
  GI50: > 100 µM (inactive)
CCRF-CEM
  GI50: 75.2 µM (inactive)
HCT-15
  GI50: 46.2 µM
HL-60
  GI50: > 100 µM (inactive)

## CCCCCCCCCCCC(=O)CC(=O)c1c(O)cccc1O
RPMI-8226
  GI50: 19.6 µM (inactive)
SF-268
  GI50: 16.4 µM (inactive)
ACHN
  GI50: 19.2 µM (inactive)
DLD-1
  GI50: 17.7 µM (inactive)
SF-295
  GI50: 19.4 µM (inactive)
NCI-H23
  GI50: 19.6 µM (inactive)
NCI-H460
  GI50: 19 µM (inactive)
M14
  GI50: 18 µM (inactive)
EKVX
  GI50: 17.8 µM (inactive)
CAKI-1
  GI50: > 10 µM (inactive)
Malme-3M
  GI50: 15.5 µM (inactive)
SF-539
  GI50: 18.5 µM (inactive)
OVCAR-8
  GI50: 16.6 µM (inactive)
HOP-92
  GI50: 20.4 µM (inactive)
OVCAR-5
  GI50: 15.5 µM (inactive)
CCRF-CEM
  GI50: > 100 µM (inactive)
HCT-15
  GI50: 22.6 µM
HL-60
  GI50: 34.9 µM (inactive)

## OCCSCC/C(=N\N=C(/CCSCCO)c1ccccc1)c1ccccc1
RPMI-8226
  GI50: 39.4 µM (inactive)
SF-268
  GI50: > 100 µM (inactive)
ACHN
  GI50: 74.5 µM (inactive)
DLD-1
  GI50: > 100 µM (inactive)
SF-295
  GI50: 34.4 µM (inactive)
NCI-H23
  GI50: > 100 µM (inactive)
NCI-H460
  GI50: 69.5 µM (inactive)
M14
  GI50: > 100 µM (inactive)
EKVX
  GI50: > 100 µM (inactive)
CAKI-1
  GI50: 32.1 µM (inactive)
Malme-3M
  GI50: > 100 µM (inactive)
SF-539
  GI50: > 100 µM (inactive)
OVCAR-8
  GI50: 89.5 µM (inactive)
HOP-92
  GI50: 31.1 µM (inactive)
OVCAR-5
  GI50: > 100 µM (inactive)
CCRF-CEM
  GI50: 44.9 µM (inactive)
HCT-15
  GI50: > 100 µM
HL-60
  GI50: 88.5 µM (inactive)

## COc1ccc(N2C(=O)C3c4[nH]c5ccc(OC)cc5c4C4CCC(C(C)(C)C)CC4C3C2=O)cc1 (stereo not drawn)
RPMI-8226
  GI50: 57.1 µM (inactive)
SF-268
  GI50: 14.3 µM (inactive)
ACHN
  GI50: 28.5 µM (inactive)
DLD-1
  GI50: 64.7 µM (inactive)
SF-295
  GI50: 9.51 µM (inactive)
NCI-H23
  GI50: 19.1 µM (inactive)
NCI-H460
  GI50: 16.6 µM (inactive)
M14
  GI50: 19.9 µM (inactive)
EKVX
  GI50: 24.7 µM (inactive)
CAKI-1
  GI50: 42.6 µM (inactive)
Malme-3M
  GI50: 7.03 µM (inactive)
SF-539
  GI50: 12.8 µM (inactive)
OVCAR-8
  GI50: 25 µM (inactive)
HOP-92
  GI50: 10.7 µM (inactive)
OVCAR-5
  GI50: > 100 µM (inactive)
CCRF-CEM
  GI50: 58.6 µM (inactive)
HCT-15
  GI50: > 100 µM
HL-60
  GI50: 43 µM (inactive)
